5 compounds from patent publication US8242087B2, “Phosphate modified nucleosides useful as substrates for polymerases and as antiviral agents” (priority 2007, dated 2012) can be followed below.

In one assay the target is T1, HIV RT (Human immunodeficiency virus type 1 group M subtype B, UniProt P03366).
T1 construct: HIV RT polymerase was purchased from GE Healthcare; purchased GE Healthcare (Amersham Bioscience)
Briefly: Primer extension by HIV RT (P1/T3, P1/T5). Format: biochemical, HIV-1. The following applies: one hour, 500 μM. On the procedure: (§1) A typical single nucleotide incorporation and primer extension assays using HIV RT polymerase was carried out similar to one described in the literature. HIV RT polymerase was purchased from GE Healthcare and was supplied as either 12 or 30 U/μL stock solution. The final concentration of HIV RT in a reaction mixture was 0.03-0.003 U/μL. A primer/template duplex mixture was prepared by combining appropriate amounts of a 5′-^33P-labeled primer (P1) and a template in 1:2 molar ratio to provide a 4× solution with 0.5 μM primer concentration. The polymerase reactions were carried out in a 5×RT buffer containing 250 mM TRIS.HCL, 250 mM KCl, 50 mM MgCl2, 2.5 mM spermidine, 50 mM DTT, pH 8.3. For the single nucleotide incorporation assay, a P1/T1 primer-template pair was used whereas the primer extension study was performed with P1/T3 and P1/T5 primer-template pairs.
Primer extension study with HIV RT and Therminator DNA polymerase was performed in a fashion similar to the single nucleotide incorporation experiments. Two sets of primer/template complexes were used: P1/T3 and P1/T5.

Assay [1] has as its target T2, Therminator DNA polymerase (Thermococcus sp., UniProt Q56366, A485L/D141A/E143A).
T2 construct: purchased Westburg (NEB)
Briefly: Single nucleotide incorporation by Therminator DNA polymerase. Format: biochemical, (9° N-7) Thermococcus sp. The following applies: single nucleotide incorporation, P1/T1. On the procedure: In the case of Therminator DNA polymerase, the enzyme was obtained from Westburg (NEB) (2 U/μL) and the reactions were carried out in a 10× Thermopol reaction buffer containing 20 mM TRIS.HCl, 10 mM KCl, 2 mM MgSO4, 0.1% Triton X-100, pH 8.8. The final concentration of the Therminator DNA pol in the reaction mixture was 8.33×10^−4 U/μL. The polymerase reaction involving Therminator DNA polymerase or any other thermostable polymerase (Vent (exo^−), Taq DNA polymerase) was carried out in a similar way as the HIV RT reaction with some modifications. The dNTP solutions and the primer/template/DNA polymerase mixture solutions were topped with mineral oil (30-60 μL) and pre-incubated at 70° C. for 2 minutes. The polymerase reactions were performed at 70° C. as well.

In assay [2] the target is T3, HIV reverse transcriptase (HIV RT) (Human immunodeficiency virus type 1 group M subtype B, UniProt P03366).
T3 construct: HIV RT polymerase was purchased from GE Healthcare; purchased GE Healthcare (Amersham Bioscience)
Briefly: Single nucleotide incorporation by HIV RT, gel-based, P1/T1 (Examples 2-3). The following applies: same conditions (500 μM, 60 min). Format: biochemical, HIV-1. On the procedure:
as §1
Briefly, a mixture containing 5 μL of the 4× primer/DNA duplex solution and 5 μL of 4× polymerase solution was pre-incubated at 37° C. for 2 minutes to ensure formation a DNA polymerase/DNA duplex complex. Simultaneously, 2× solutions of dNTP to provide final concentrations of 100 μM, 200 μM, 500 μM and 1 mM were also pre-incubated at 37° C. for 2 minutes as well. The polymerase reaction in a total volume of 20 μL was initiated by addition of 10 μL of the 2× dNTP solution to the DNA polymerase/DNA duplex mixture. The reactions were run at 37° C. and aliquots (2.5 μL) were removed at specified time points and mixed with 10 μL of a quenching buffer containing 80% formamide, 2 mM EDTA, 1×TBE. Quenched reactions were analyzed by loading 2 μL of a reaction sample onto a 20% denaturing polyacrylamide:gel (19:1 acrylamide:bisacrylamide, 7M urea, 0.4 mm×30 cm×40 cm) made in 1×TBE buffer (90 mM Tris-borate, 2 mM EDTA, pH 8.3). The gel was pre-equilibrated for 2 hours before loading and the reactions were run along with a tracking dye marker containing bromophenol blue (BB) and xylene cyanol (XC) until the BB dye had run ⅔ of the total gel length. For visualization, gels were scanned using a Cyclone Phosphoroimager.

For assay [3], the target named is T4, HIV-1 Reverse Transcriptase (Human immunodeficiency virus type 1 group M subtype B, UniProt P03366).
T4 construct: performed with the enzyme HIV-1 RT (Ambion, 10 U/μL stock solution); purchased Ambion
Briefly: Single incorporation into P1T1 by HIV-1 Reverse Transcriptase (Examples 6, 7, 9). The following applies: for conversion to an n+1 strand: 2 hours, 1 mM concentration. The class given is biochemical. On the procedure:
HIV-1 Reverse Transcriptase serves, in the HIV-1 viral replication process, as a catalyst and uses deoxynucleotides as substrates. This polymerase is error-prone and thus has a high mutation rate. Here, we evaluated the capacity to incorporate a deoxyadenosine nucleoside into the primer-template complex P1T1 using HIV-1 RT, and some of the above described illustrative compounds of the invention, carrying different leaving groups, as substrates. The initial screening was carried out using a template with an overhang of one thymidine nucleotide followed by three non-pyrimidine bases (Table 1). Incorporation efficiency was analysed by the polyacrylamide gel-based single nucleotide incorporation assay.
End-labeled primer was annealed to its template by combining primer and template in a molar ratio of 1:2 and heating the mixture to 70° C. for 10 minutes followed by slow cooling to room temperature over a period of 1.5 hour. For the incorporation of 1, 2, 3, 4, 5 and 6, a series of 20 μL-batch reactions was performed with the enzyme HIV-1 RT (Ambion, 10 U/μL stock solution, specific activity 8.095 U/mg, concentration 1.2 mg/mL). The final mixture contained 125 nM primer template complex, RT buffer (250 mM Tris.HCl, 250 mM KCl, 50 mM MgCl2, 2.5 mM spermidine, 50 mM dithiothreitol (DTT); pH 8.3), 0.025 U/μL HIV-1 RT, and different concentrations of phosphoramidate or phosphodiester building blocks (1 mM, 500 μM, 200 μM and 100 μM respectively). In the case of the aromatic phosphate-modified nucleosides 23 and 24, the range of concentrations was limited to 1 mM. In the control reaction with the natural nucleotide, a 10 μM dATP concentration was used. The mixture was incubated at 37° C. and 2.5 μL aliquots were quenched after 5, 10, 20, 30, 60 and 120 minutes.

T2 sequence (Q56366 whole entry D141A/E143A/A485L): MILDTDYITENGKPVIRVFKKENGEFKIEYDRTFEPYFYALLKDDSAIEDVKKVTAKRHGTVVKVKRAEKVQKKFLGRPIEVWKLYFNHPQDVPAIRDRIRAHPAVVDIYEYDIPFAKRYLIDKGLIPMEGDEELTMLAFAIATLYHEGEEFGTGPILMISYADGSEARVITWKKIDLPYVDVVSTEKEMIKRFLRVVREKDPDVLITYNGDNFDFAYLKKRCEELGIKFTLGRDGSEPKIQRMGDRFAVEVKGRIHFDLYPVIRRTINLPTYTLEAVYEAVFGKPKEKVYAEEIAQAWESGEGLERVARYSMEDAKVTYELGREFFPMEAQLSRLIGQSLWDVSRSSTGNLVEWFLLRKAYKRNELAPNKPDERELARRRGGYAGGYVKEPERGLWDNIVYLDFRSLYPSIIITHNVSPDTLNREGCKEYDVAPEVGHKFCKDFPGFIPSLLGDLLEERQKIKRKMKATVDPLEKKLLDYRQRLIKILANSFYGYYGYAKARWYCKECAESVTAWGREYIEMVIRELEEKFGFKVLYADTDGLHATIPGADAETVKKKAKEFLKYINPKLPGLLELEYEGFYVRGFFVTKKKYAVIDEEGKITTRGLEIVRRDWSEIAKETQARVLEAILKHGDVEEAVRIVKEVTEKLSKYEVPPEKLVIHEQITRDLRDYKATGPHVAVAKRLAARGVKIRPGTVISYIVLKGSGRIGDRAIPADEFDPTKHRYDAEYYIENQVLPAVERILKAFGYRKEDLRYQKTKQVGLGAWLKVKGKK

On to `Nc1ncnc2c1ncn2[C@H]1C[C@H](O)[C@@H](COP(=O)(O)NCC2CO2)O1` (stereo partly shown) [Compound 3, 2′-deoxy-adenosine-5′-glycidyl-phosphoramidate], for which the “primer strand extension efficiency” value on HIV RT is given as “low efficiency”. Besides, in assay [1], the “incorporation as Therminator DNA polymerase substrate” value is reported as “act effectively as alternative substrates”. Further, the “incorporation, fold less efficient than Asp-dAMP” value in assay [2] came to 6.5 fold.

As to `Nc1ncnc2c1ncn2[C@H]1C[C@H](O)[C@@H](COP(=O)(O)Oc2cc(C(=O)O)cc(C(=O)O)c2)O1` [Compound 22, 2′-deoxyadenosine-5′-(5-hydroxy-isophthalic acid) phosphodiester], the “conversion to an n+1 strand” value in assay [3] is listed as 90-92%.

In the case of `Nc1ncnc2c1ncn2[C@H]1C[C@H](O)[C@@H](COP(=O)(O)Nc2cc(C(=O)O)cc(C(=O)O)c2)O1` [Compound 23, 2′-deoxyadenosine-5′(5-aminoisophthalic acid) phosphoramidate], the “recognition as substrate” value in assay [3] (1 mM) is “less well recognized as substrate”.

For `Nc1ncnc2c1ncn2[C@H]1C[C@H](O)[C@@H](COP(=O)(O)Oc2ccc(C(=O)O)c(C(=O)O)c2)O1` [Compound 24, 2′-deoxyadenosine-5′-(4-hydroxy-phthalic acid) phosphodiester], the “conversion to an n+1 strand” value in assay [3] is listed as 13%.

For `Nc1ncnc2c1ncn2[C@H]1C[C@H](O)[C@@H](COP(=O)(O)OCC(=O)O)O1` [GA-dAMP, 2′-deoxyadenosine-5′-(glycolic acid) phosphodiester], the “n+1 formation” value in assay [3] (500 μM) is “up to 68%”.
